Measurements published in patent US12576129B2, “Anthelmintic compositions and methods” (priority 2016, dated 2026).
In brackets after ≈: the same amount, converted by molar mass. Read-outs that look alike come from different tables or passages of the source.

Experiments:
[1] = cited from earlier work
BaCC [2] = assay: Carvacrol wash protocols: alive bacteria (CFU) after treatment; type: cell-based, Bacillus thuringiensis
Protocol: To reduce carvacrol residue in the final product, we tested different strategies. In order to reduce the carvacrol residue in the final IBaCC product, first the total amount of carvacrol was reduced by concentrating the cultures before carvacrol treatment. The cultures were centrifuged, and the pellets were re-suspended in sterile distilled water in half or one fourth of the original culture volume. Then, carvacrol was added at 1 mg/mL concentration. Second, carvacrol was removed from the culture by increasing the solubility of carvacrol in the water phase. […] As such, 5% and 15% of ethanol water was used in the washing steps following the IBaCC incubation with carvacrol. Another strategy employed was to increase the volume of distilled water during the washing steps to remove more carvacrol per wash step (for instance, only 25 mg carvacrol can be solubilized with 20 mL of water while 50 mg carvacrol can be solubilized with 40 mL of water.) Lastly, since the temperature affects carvacrol solubility, the incubation and washing steps were carried out at room temperature instead of 4° C. The positive control sample was treated with 1 mg/mL carvacrol without concentrating the culture prior to carvacrol treatment, incubated at 4° C., washed with 1M NaCl once and distilled water twice using 1:1 culture to wash volume ratio. No terpene control sample received water instead of carvacrol, but the incubation and washing steps were carried out in the same manner as the positive control. BaCC culture was grown in 3× LB for 48 hours, and 40 mL of BaCC culture was used for each condition. After washes, the culture was concentrated 20 times. Samples were plated for CFU/mL analysis as described earlier, and carvacrol residue was assessed by HPLC as follows.

E. coli = assay: CFU of E. coli after carvacrol treatment; type: cell-based, Escherichia coli; settings: 1 mg/mL carvacrol for 15 minutes
Protocol: Bioactivity of carvacrol-treated Crystal-E. coli on C. elegans. Escherichia coli cells expressing nematicidal Crystal protein or empty vector were treated for 15 minutes with 1 mg/mL carvacrol. The cells were washed in sterile water 3 times. CFUs were determined for untreated and carvacrol-treated cells by serial dilution plating on LB plates. In addition, C. elegans nematode L4 hermaphrodites were fed overnight 1.8 ×10^7 cells/mL of E. coli untreated or carvacrol-treated, Crystal expressing and empty vector (4 conditions) at 25° C. for 16 hr.

BaCC [3] = assay: Minimum inhibitory concentration of terpenes against BaCC (broth microdilution); type: cell-based; settings: Bacillus thuringiensis; 24 h at 30° C. in LB; no absorbance increase; read-out: MIC μg/mL (100)
Protocol: Three terpenes were tested against BaCC including: carvacrol, geraniol and farnesol, by using the broth microdilution method as described in Agaisse and Lereclus, J. Bacteriol. 176, 4734-4741, 1994 and Agaisse and Lereclus, Mol. Microbiol. 13, 97-107, 1994 with some modifications. Briefly, BaCC from a single colony was grown in 5 mL of LB medium supplemented with 10 μg/mL erythromycin+200 μg/mL kanamycin overnight (O.D. (600) of 4.8, 2.3×10^7 CFU/mL). Terpene solutions were prepared at 1 mg/mL in LB. One hundred μL of two-fold serial dilutions of each terpene in LB were prepared in 96-well microtiter plates over the range of 1000 to 3.9 μg/mL in triplicate. LB without terpenes was used as a negative control. BaCC culture was diluted 100 times, and 100 μL of BaCC culture was added to the wells. Absorbance at 600 nm was recorded before and after the incubation to monitor bacterial growth. The MICs were determined after incubation for 24 h at 30° C. without shaking.

BaCC [4] = assay: Time to kill: CFU/mL of BaCC after terpene treatment; type: cell-based, Bacillus thuringiensis
Protocol: In order to determine which terpene kills BaCC in the shortest amount of time, we incubated 5 mL of BaCC culture with three terpenes at 1 mg/mL at 4° C. for 1, 2, 3 and 5 hours. No terpene control and no bacteria controls were carried out simultaneously. After incubation with terpenes, samples were centrifuged and the pellets were washed with 5 mL of 1M NaCl once and 5 mL of sterile distilled water twice in order to remove the terpenes. The pellets were re-suspended in the original volume and plated on LB agar with kanamycin and erythromycin. Plates were incubated overnight at 30° C.; the next day, the number of colonies on the plates were enumerated and colony forming units (CFU)/mL calculated.
To assess terpene killing at shorter time points, BaCC culture was grown in 3× LB for 48 h as described above and 60 ml of cultures were aliquoted in sterile tubes. Carvacrol and geraniol were added to the final concentration of 1 mg/mL, and the tubes were placed on a rotator at 4° C. for 15 minutes. The negative control was prepared using sterile water instead of terpenes. At the end of the incubation period, the tubes were centrifuged at 2000× g for 10 minutes and pellets washed with 60 ml of 1 M NaCl once and washed with 60 mL of sterile distilled water twice. Pellets were re-suspended in 1.2 mL of sterile distilled water to concentrate the culture 50 times. Concentrated terpene treated and control samples were plated on LB agar plates containing kanamycin and erythromycin and incubated overnight at 30° C. The number of colonies were counted the next day and CFU/mL calculated for each time point.

[5] = Concentrated 2X = 20 ml before adding carvacrol (1 mg/mL)
[6] = Concentrated 4X = 10 ml before adding carvacrol (1 mg/mL)
[7] = Control: 4C, no concentration, 1:1 culture to wash volume (1 mg/mL carvacrol)
[8] = Incubated and washed at room temperature
[9] = Wash volume increased 2X (e.g., 40 ml wash for 20 ml culture)
[10] = Washes were done with 5% ethanol in water
[11] = Washes were done with 15% ethanol in water

## Cc1ccc(C(C)C)cc1O [Carvacrol, carvacrol]
[1]
  log P octanol/water: 3.64
[1]; with 20 mL of water
  amount that can be solubilized: 25 mg
[1]; with 40 mL of water
  amount that can be solubilized: 50 mg
BaCC [2]; [5]
  Number of alive bacteria in 1 ml 20X concentrate: 0
  Number of alive bacteria in 1 ml culture: 0
BaCC [2]; [6]
  Number of alive bacteria in 1 ml 20X concentrate: 0
  Number of alive bacteria in 1 ml culture: 0
BaCC [2]; [7]
  Number of alive bacteria in 1 ml 20X concentrate: 0
  Number of alive bacteria in 1 ml culture: 0
BaCC [2]; [8]
  Number of alive bacteria in 1 ml 20X concentrate: 0
  Number of alive bacteria in 1 ml culture: 0
BaCC [2]; [9]
  Number of alive bacteria in 1 ml 20X concentrate: 140
  Number of alive bacteria in 1 ml culture: 7
BaCC [2]; [10]
  Number of alive bacteria in 1 ml 20X concentrate: 0
  Number of alive bacteria in 1 ml culture: 0
BaCC [2]; [11]
  Number of alive bacteria in 1 ml 20X concentrate: 160
  Number of alive bacteria in 1 ml culture: 8
E. coli
  killing of E. coli (CFUs): effectively killed the E. coli
BaCC [3]
  MIC: 125 µg/mL (≈ 832 µM)
BaCC [4]; 15 min at 4° C., culture concentrated 50 times (50X conc.) before plating
  CFU/ml (1 mg/mL terpene treatment for time indicated): 0 CFU/ml
BaCC [4]; 1 h at 4° C.
  CFU/ml (1 mg/mL terpene treatment for time indicated): 0 CFU/ml
BaCC [4]; 3 h at 4° C.
  CFU/ml (1 mg/mL terpene treatment for time indicated): 0 CFU/ml
BaCC [4]; 5 h at 4° C.
  CFU/ml (1 mg/mL terpene treatment for time indicated): 0 CFU/ml
BaCC [4]; carvacrol treatment
  killing of BaCC (spo0A- cells expressing Cry5B): complete killing of the Bacilli
BaCC [4]; carvacrol, geraniol, farnesol against BaCC
  comparison of antimicrobial efficiency among the 3 terpenes: most efficient, killing the quickest and at the lowest concentration
BaCC [4]; time 0
  CFU/ml (1 mg/mL terpene treatment for time indicated): 2.31 × 10^7 CFU/ml
